Results on 1 molecule are retold here after patent publication US6056944A, “Pharmaceutical compositions for oral use including an NSAID and ceramides” (Synthelabo, priority 1995, dated 2000).

The structures appear in SMILES notation.

The assay concerns inflammation of the adult rat paw. Kind of assay: carragheenin-induced inflammation of the adult rat paw (edema volume). It is filed as in vivo. The note with it: gavage, 1 mg/kg, from 4 hours onwards, persisting up to 5 hours. How it is done:
These tests consist in inducing inflammation of the adult rat paw and monitoring the development of the edema by measuring the volume of the paw.
The experimental conditions were as follows: rats, weighing from 200 to 220 g, were treated by gavage, 18 hours and 1 hour before administering the inflammatory agent, with the NSAI product to be studied, which was or was not combined with ceramides and which was administered in a volume of 0.5 ml. Control groups were given an 0.9% solution of sodium chloride.
The inflammatory reaction is induced by subcutaneously injecting 0.1 ml of a suspension of carragheenin in physiological saline. The volume of the paw is measured, using a mercury plethysmograph, before the inflammation starts, 30 minutes after it has started, and then every hour up to the 6th hour, and then finally 24 hours afterwards. The changes in volume are measured in cm on a graduated scale.
The tests were carried out with ketoprofen lysine, which was administered at 1 and 3 mg/kg and which was or was not combined with 0.5% of ceramides, and with ketoprofen, which was administered at 1 mg/kg and which was or was not combined with 1% of ceramides.

For `CC(C(=O)O)c1cccc(C(=O)c2ccccc2)c1` (stereo not shown) [ketoprofen], the “anti-inflammatory effect as compared with the control” value is given as “significant as compared with the control”.
